Patent publication US9006440B2, “Furopyridine derivatives” (Merck Patent GmbH, priority 2010, dated 2015)
pIC50: −log10 of the molar value.

Key:
SRC = biological target: T1, SRC (Homo sapiens, UniProt P12931); assay: Src enzymatic assay (Caliper LifeSciences technology); format: biochemical
T1 construct: purchased Carna Bioscience, Kobe, Japan
Summary of the method: (§1)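 Off-chip mobility-shift assay measuring conversion of a fluorescently labelled peptide substrate, in 100 mM HEPES pH 7.5, 1 mM DTT, 1 mM MgCl2 and 0.015% Brij-35. Reactions ran 90 min at 25 C and were stopped with EDTA. IC50s were derived from percent-conversion dose-response curves.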

Zap70 = biological target: T2, Zap70 (Homo sapiens, UniProt P43403); assay: ZAP-70 enzymatic assay (Caliper LifeSciences technology); format: biochemical
T2 construct: purchased BPS Bioscience, CA, USA
T2 sequence (P43403 1-619): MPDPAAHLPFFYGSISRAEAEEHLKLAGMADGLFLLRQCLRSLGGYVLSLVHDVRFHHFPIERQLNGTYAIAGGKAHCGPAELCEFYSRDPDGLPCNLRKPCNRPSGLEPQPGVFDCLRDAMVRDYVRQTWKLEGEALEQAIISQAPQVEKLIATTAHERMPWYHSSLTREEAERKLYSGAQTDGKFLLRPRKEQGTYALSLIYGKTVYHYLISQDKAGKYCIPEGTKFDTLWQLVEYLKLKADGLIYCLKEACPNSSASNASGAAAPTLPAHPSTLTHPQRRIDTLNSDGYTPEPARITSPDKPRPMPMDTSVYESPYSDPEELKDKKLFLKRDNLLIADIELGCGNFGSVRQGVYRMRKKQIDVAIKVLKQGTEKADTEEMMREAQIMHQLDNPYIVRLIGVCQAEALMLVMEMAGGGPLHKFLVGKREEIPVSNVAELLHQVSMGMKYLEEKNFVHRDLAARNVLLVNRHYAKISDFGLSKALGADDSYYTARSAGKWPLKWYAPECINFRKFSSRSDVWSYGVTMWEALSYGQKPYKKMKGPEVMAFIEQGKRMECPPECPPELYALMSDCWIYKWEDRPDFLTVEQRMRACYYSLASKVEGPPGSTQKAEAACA
Description: (§2) The assays described here are performed on the Caliper Life Sciences LC3000 system This technology provides data on enzyme activity via measurement of the relative amounts of phosphorylated or unphosphorylated fluorescently labelled substrate peptide at the end of an enzymatic reaction. These different states of peptide are resolved by applying a potential difference across the sample. The presence of the charged phosphate group on the product (as opposed to the substrate) causes a different peptide mobility between the two peptides. This is visualized by excitation of the fluorescent label on the substrate and product peptides and represented as peaks within the analysis software.
(§3) In order to measure inhibitor activity of kinase inhibitors on this technology, a TTP Mosquito liquid handling instrument is used to place 0.25 ul of the appropriate concentration of inhibitor in 100% DMSO (for a dose response curve calculation) into each well of a 384-well plate. To this reaction components are added to a final volume of 25 ul. The table below indicates the sequences and concentrations for the assays described in this report. Standard components are 1 mM DTT (Sigma, D0632), 1 mM MgCl2 (Sigma, M1028), 100 mM HEPES pH 7.5 (Calbiochem, 391338), 0.015% Brij-35 (Sigma, B4184).
(§4) The reaction is incubated for 90 min at 25 C, and then stopped by the addition of 70 ul of Stop buffer (100 mM HEPES pH 7.5, 0.015% Brij-35, 10 mM EDTA (Sigma, E7889)).
(§5) The plate is read on a Caliper LC 3000 in an Off-Chip mobility shift assay format, on a 12-sipper chip. Unphosphorylated substrate and phosphorylated product peptide resolve as separate peaks allowing direct measurement of percentage of conversion of substrate to product. The percent conversion can be plotted against concentration of inhibitor to produce a sigmoidal dose response curve, from which an IC50 can be calculated using GeneData Condoseo or a similar product.

Syk = biological target: T3, Syk (Homo sapiens, UniProt P43405); assay: Syk enzyme assay (SYK flash plate assay / Caliper mobility shift); format: biochemical
T3 construct: purchased BPS Bioscience, CA, USA
Summary of the method: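 Flashplate format: 2.5 nM SYK, 400 nM biotinylated peptide, 10 μM ATP with 33P-ATP, pH 7.5, 1 h at 30 °C; radioactivity read, staurosporine background. Caliper format: 90 min at 25 °C, mobility-shift read of substrate-to-product conversion; IC50 from dose-response curve.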

BTK = biological target: T4, BTK (Homo sapiens, UniProt Q06187); assay: BTK enzymatic assay (Caliper LifeSciences technology); format: biochemical
T4 construct: purchased Carna Bioscience, Kobe, Japan
Description: as §2, §3, §4, §5

KDR = biological target: T5, KDR (Homo sapiens, UniProt P35968); assay: KDR enzymatic assay (Caliper LifeSciences technology); format: biochemical
T5 construct: purchased BPS Bioscience, CA, USA
Summary of the method: as §1

[1] = test system: BLNK phosphorylation in Ramos cells; assay: BCR crosslinking-induced BLNK phosphorylation (BLNK cell assay); format: cell-based; settings: Homo sapiens
Description: 1. BCR Crosslinking-Induced BLNK Phosphorylation
Ramos cells incubated overnight in IMDM medium containing 5% FCS were resuspended in IMDM medium without serum (3.3×10^6 cells/ml). 90 μl of cell suspension (300′000 cells) were incubated with 10 μl of SYK inhibitors (in 3% DMSO) for 20 minutes at 37° C., in 96 well plates. After preincubation with inhibitors, cells were activated with 10 μg/ml of goat antihuman anti-IgM for 10 minutes at 37° C. After stimulation, cells were fixed by addition of 80 μl of 4% paraformaldehyde followed by a 10 minutes incubation at RT and […] in 0.1% Triton X-100 in PBS. BLNK phosphorylation was detected by flow cytometry after staining of the cells with anti-BLNK-pY84-PE antibodies from BD pharmingen, for 45 minutes at RT.
BLNK phosphorylation in CD19^+ peripheral blood mononuclear cells (PBMC) isolated from buffy coats of healthy volunteers was performed using the same protocol and staining the cells with a mixture of anti-BLNK-pY84-PE, anti CD-19 PerCp and Anti-IgM APC antibodies from BD Pharmingen.

murine model of RA = settings: cited from earlier work
[2] = test system: RA Phase II studies in humans; settings: cited from earlier work

T5 sequence (P35968 20-1356): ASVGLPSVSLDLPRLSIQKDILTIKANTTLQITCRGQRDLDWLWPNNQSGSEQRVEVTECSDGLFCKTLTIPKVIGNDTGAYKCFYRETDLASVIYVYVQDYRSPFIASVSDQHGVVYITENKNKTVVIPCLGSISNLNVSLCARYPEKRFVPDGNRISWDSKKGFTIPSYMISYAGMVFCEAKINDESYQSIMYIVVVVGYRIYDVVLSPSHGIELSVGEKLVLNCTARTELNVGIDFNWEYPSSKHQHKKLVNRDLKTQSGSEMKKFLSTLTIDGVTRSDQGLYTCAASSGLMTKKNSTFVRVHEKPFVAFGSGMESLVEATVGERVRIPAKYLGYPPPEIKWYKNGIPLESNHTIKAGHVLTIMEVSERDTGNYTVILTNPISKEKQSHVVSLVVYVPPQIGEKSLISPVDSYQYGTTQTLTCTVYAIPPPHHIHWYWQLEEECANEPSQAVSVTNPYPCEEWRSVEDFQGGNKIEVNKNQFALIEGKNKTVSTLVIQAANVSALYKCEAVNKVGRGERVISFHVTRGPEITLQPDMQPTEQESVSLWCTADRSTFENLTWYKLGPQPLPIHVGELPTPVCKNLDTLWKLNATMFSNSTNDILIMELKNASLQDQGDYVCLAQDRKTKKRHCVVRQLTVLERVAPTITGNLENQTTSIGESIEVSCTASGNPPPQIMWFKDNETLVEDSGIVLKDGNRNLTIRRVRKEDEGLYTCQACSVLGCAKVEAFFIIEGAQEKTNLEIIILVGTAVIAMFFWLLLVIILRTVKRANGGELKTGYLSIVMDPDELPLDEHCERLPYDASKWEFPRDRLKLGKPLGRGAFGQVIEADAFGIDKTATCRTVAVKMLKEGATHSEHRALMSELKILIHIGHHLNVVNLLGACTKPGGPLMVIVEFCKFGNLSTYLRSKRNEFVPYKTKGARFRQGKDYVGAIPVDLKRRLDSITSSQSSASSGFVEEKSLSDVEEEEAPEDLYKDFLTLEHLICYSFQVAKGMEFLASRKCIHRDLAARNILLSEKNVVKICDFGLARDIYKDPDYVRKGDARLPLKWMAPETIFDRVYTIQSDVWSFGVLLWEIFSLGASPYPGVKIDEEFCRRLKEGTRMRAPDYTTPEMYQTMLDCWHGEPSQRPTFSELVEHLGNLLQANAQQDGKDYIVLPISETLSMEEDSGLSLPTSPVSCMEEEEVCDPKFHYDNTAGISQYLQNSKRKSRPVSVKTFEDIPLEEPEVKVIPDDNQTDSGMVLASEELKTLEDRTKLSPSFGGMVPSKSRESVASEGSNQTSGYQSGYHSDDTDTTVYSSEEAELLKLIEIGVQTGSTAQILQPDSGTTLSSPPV
T4 sequence (Q06187 whole entry): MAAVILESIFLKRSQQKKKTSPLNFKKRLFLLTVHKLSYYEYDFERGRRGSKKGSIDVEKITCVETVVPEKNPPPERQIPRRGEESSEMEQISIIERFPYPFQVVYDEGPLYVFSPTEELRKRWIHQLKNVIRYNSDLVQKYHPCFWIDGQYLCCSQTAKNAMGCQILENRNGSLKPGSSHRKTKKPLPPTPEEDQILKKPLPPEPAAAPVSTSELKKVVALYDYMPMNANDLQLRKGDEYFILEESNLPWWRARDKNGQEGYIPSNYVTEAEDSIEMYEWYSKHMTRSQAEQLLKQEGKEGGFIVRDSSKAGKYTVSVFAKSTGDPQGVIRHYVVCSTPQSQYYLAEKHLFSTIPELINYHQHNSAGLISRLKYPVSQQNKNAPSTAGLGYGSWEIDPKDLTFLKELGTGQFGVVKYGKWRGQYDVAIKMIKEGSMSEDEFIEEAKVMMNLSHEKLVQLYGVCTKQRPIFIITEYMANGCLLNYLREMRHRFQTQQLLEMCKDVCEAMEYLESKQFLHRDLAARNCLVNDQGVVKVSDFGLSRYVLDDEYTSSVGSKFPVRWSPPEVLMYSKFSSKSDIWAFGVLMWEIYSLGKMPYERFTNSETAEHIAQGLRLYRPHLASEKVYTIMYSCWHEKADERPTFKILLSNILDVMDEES
T1 sequence (P12931 whole entry): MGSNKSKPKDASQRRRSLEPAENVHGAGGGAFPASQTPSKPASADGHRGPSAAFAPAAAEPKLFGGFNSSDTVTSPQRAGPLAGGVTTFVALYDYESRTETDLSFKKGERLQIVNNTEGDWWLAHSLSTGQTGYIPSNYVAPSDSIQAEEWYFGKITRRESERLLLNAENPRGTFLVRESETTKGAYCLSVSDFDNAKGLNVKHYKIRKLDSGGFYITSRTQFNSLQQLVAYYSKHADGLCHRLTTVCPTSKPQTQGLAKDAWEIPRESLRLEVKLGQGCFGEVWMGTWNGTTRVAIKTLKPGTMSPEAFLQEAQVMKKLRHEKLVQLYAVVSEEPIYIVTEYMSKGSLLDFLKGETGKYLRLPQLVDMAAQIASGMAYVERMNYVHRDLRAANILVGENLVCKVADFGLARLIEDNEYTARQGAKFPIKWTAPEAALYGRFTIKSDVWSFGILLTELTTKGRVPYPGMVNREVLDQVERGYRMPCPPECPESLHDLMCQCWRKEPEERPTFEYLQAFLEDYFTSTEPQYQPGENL

## COc1cc(-c2cc3nccc(-c4cn[nH]c4)c3o2)cc(OC)c1OC [Compound C72]
SRC
  pIC50: 5.52 to 6.52
Zap70
  pIC50: 4.30 to 5.52
Syk
  pIC50: > 6.52
BTK
  pIC50: 4.30 to 5.52
KDR
  pIC50: > 6.52

## COc1cc(-c2cc3nccc(Nc4ccc5[nH]ccc5c4)c3o2)cc(OC)c1OC [Compound B30]
SRC
  pIC50: > 6.52
[1]
  pIC50: 4.30 to 5.52
Syk
  pIC50: > 6.52
BTK
  pIC50: 5.52 to 6.52
KDR
  pIC50: > 6.52

## COc1cc(-c2cc3nccc(-c4ccccc4)c3o2)cc(OC)c1OC [Compound A5, 7-Phenyl-2-(3,4,5-trimethoxy-phenyl)-furo[3,2-b]pyridine]
[1]
  pIC50: 4.30 to 5.52
Syk
  pIC50: > 6.52

## COc1cc(-c2cc3nccc(Nc4ccc5[nH]ccc5c4C)c3o2)cc(OC)c1OC [Compound B22]
SRC
  pIC50: > 6.52
[1]
  pIC50: 4.30 to 5.52
Syk
  pIC50: > 6.52
BTK
  pIC50: 5.52 to 6.52
KDR
  pIC50: > 6.52

## COc1cc(-c2cc3nccc(-c4c(OC)cccc4OC)c3o2)cc(OC)c1OC [Compound C2]
SRC
  pIC50: 5.52 to 6.52
Zap70
  pIC50: 4.30 to 5.52
Syk
  pIC50: > 6.52
KDR
  pIC50: 4.30 to 5.52

## COc1cc(-c2cc3nccc(-c4c[nH]c5ccccc45)c3o2)cc(OC)c1OC [Compound A25, 7-(1H-Indol-3-yl)-2-(3,4,5-trimethoxy-phenyl)-furo[3,2-b]pyridine]
SRC
  pIC50: 4.30 to 5.52
Zap70
  pIC50: 4.30 to 5.52
Syk
  pIC50: 5.52 to 6.52
KDR
  pIC50: 4.30 to 5.52

## COc1cc(-c2cc3nccc(-c4cc[nH]n4)c3o2)cc(OC)c1OC [Compound C73]
SRC
  pIC50: 5.52 to 6.52
Zap70
  pIC50: 5.52 to 6.52
Syk
  pIC50: > 6.52
BTK
  pIC50: 4.30 to 5.52
KDR
  pIC50: > 6.52

## COc1cc(-c2cc3nccc(Nc4ccc5cn[nH]c5c4)c3o2)cc(OC)c1OC [Compound B15]
SRC
  pIC50: 4.30 to 5.52
Zap70
  pIC50: 4.30 to 5.52
Syk
  pIC50: 5.52 to 6.52
BTK
  pIC50: 4.30 to 5.52
KDR
  pIC50: 5.52 to 6.52

## COc1cc(-c2cc3nccc(-c4cnn(C)c4)c3o2)ccc1O [Compound C26]
SRC
  pIC50: 5.52 to 6.52
Zap70
  pIC50: 5.52 to 6.52
Syk
  pIC50: > 6.52
KDR
  pIC50: 5.52 to 6.52

## COc1cc(-c2cc3nccc(-c4ccc5[nH]ccc5c4)c3o2)cc(OC)c1OC [Compound B74, 7-(1H-Indol-5-yl)-2-(3,4,5-trimethoxyphenyl)furo[3,2-b]pyridine]
[1]
  pIC50: 5.52 to 6.52
Syk
  pIC50: 5.52 to 6.52
BTK
  pIC50: 4.30 to 5.52

## COc1cc(-c2cc3nccc(-c4ccc5c(c4)NC(=O)C5)c3o2)cc(OC)c1OC [Compound B71, 6-(2-(3,4,5-Trimethoxyphenyl)furo[3,2-b]pyridin-7-yl)indolin-2-one]
Zap70
  pIC50: 4.30 to 5.52
[1]
  pIC50: 4.30 to 5.52
Syk
  pIC50: > 6.52
KDR
  pIC50: 4.30 to 5.52

## COc1cc(-c2cc3nccc(-c4ccc5[nH]cnc5c4)c3o2)cc(OC)c1OC [Compound C60]
SRC
  pIC50: 4.30 to 5.52
Zap70
  pIC50: 4.30 to 5.52
Syk
  pIC50: > 6.52
KDR
  pIC50: 5.52 to 6.52

## COc1cc(-c2cc3nccc(-c4ccc(C(=O)O)cc4)c3o2)cc(OC)c1OC [Compound A42, 4-[2-(3,4,5-Trimethoxy-phenyl)-furo[3,2-b]pyridin-7-yl]-benzoic acid]
SRC
  pIC50: 4.30 to 5.52
Zap70
  pIC50: 5.52 to 6.52
Syk
  pIC50: > 6.52
KDR
  pIC50: 4.30 to 5.52

## COc1cc(Nc2ncc(F)c(Nc3ccc4c(n3)NC(=O)C(C)(C)O4)n2)cc(OC)c1OC [Compound R406]
Murine model of RA
  bone erosion: significantly reduced
  serum cytokine concentrations: significantly reduced
Murine model of RA; orally available
  clinical scores: significant improvement
[2]
  efficacy (ACR scores): ACR scores improvement
  tolerability: good tolerability
